Drawing on patent publication US20250296936A1, “SARS-COV2 MAIN PROTEASE INHIBITORS” (Gilead Sciences, Inc., priority 2024, published 2025), this text covers EC50 for 51 compounds.

One may read the EC50 as the concentration giving half of the maximal effect.

Each structure is given as a SMILES string.

In one test the test system is SARS-CoV-2-NLuc in A549-hACE2 cells. In words: microbe, parasite or virus in culture. Format: cell-based, SARS Coronavirus 2. The conditions noted are these: Severe acute respiratory syndrome coronavirus, 48 h, read-out: MPro EC50 (nM).
For `COc1ccc(Cl)c(-c2cc3[nH]c(=O)n(-c4cncc5ccccc45)c(=O)c3o2)c1` [Example 3], the EC50 is 23.3 nM.

On to `O=c1[nH]c2cc(-c3ccccc3Cl)oc2c(=O)n1-c1cncc2c1CCCC2` [Example 5], for which the EC50 was 212 nM.

In the case of `Cn1ncc2cncc(-n3c(=O)[nH]c4cc(-c5ccccc5Cl)oc4c3=O)c21` [Example 6], the EC50 came out at 174 nM.

For `O=c1[nH]c2cc(-c3ccccc3Cl)oc2c(=O)n1-c1cncc2ccc(F)cc12` [Example 7], the EC50 was determined as 79.6 nM.

Turning to `Cc1cncc(-n2c(=O)[nH]c3cc(-c4ccccc4Cl)oc3c2=O)c1` [Example 8], the EC50 worked out at 137 nM.

`COc1ccc2cncc(-n3c(=O)[nH]c4cc(-c5ccccc5Cl)oc4c3=O)c2c1` [Example 10]: the EC50 turned out to be 95.6 nM.

As to `COc1cc(-c2cc3[nH]c(=O)n(-c4cnnc(C)c4)c(=O)c3o2)c(Cl)cc1F` [Example 12], the EC50 was above 10000 nM.

For `O=c1[nH]c2oc(-c3ccccc3)nc2c(=O)n1-c1cncc2ccccc12` [Example 13], the EC50 is 4240 nM.

Turning to `O=c1[nH]c2oc(-c3ccccc3Cl)cc2c(=O)n1-c1cncc2ccccc12` [Example 14], the concentration giving a half-maximal response (EC50) amounted to 3330 nM.

With `COc1cc(-c2cc3[nH]c(=O)n(-c4cccnn4)c(=O)c3o2)c(Cl)cc1F` [Example 15], the EC50 was above 10000 nM.

`COc1cc(-c2cc3c(o2)c(=O)n(-c2cncc4cnn(C)c24)c(=O)n3CCC#N)c(Cl)cc1F` [Example 17]: the EC50 was found to be 20.7 nM.

Take `Cn1ncc2cncc(-n3c(=O)c4oc(-c5ccccc5Cl)cc4n(CCC#N)c3=O)c21` [Example 18]: the EC50 was determined as 27.8 nM.

For `N#CCCn1c(=O)n(-c2cncc3ccccc23)c(=O)c2oc(-c3ccccc3Cl)cc21` [Example 19], the EC50 was determined as 13 nM.

Consider `COc1ccc2cncc(-n3c(=O)c4oc(-c5ccccc5Cl)cc4n(CCC#N)c3=O)c2c1` [Example 20], for which the EC50 is 17.1 nM.

`N#CCCn1c(=O)n(-c2cncc3c2CCCC3)c(=O)c2oc(-c3ccccc3Cl)cc21` [Example 21]: the EC50 was determined as 29.6 nM.

`N#CCCn1c(=O)n(-c2cncc3ccc(F)cc23)c(=O)c2oc(-c3ccccc3Cl)cc21` [Example 22]: the EC50 worked out at 19 nM.

With `Cc1cncc(-n2c(=O)c3oc(-c4ccccc4Cl)cc3n(CCC#N)c2=O)c1` [Example 23], the EC50 stood at 24.1 nM.

Regarding `Cn1ncc2cncc(-n3c(=O)c4oc(-c5ccc(F)cc5Cl)cc4n(CCC#N)c3=O)c21` [Example 24], the EC50 turned out to be 71.4 nM.

On to `N#CCCn1c(=O)n(-c2cncc3ccccc23)c(=O)c2oc(-c3ccc(F)cc3Cl)cc21` [Example 25], for which the EC50 was 41.7 nM.

Consider `COc1cc(-c2cc3c(o2)c(=O)n(-c2cccnn2)c(=O)n3CCC#N)c(Cl)cc1F` [Example 26], for which the EC50 amounted to 408 nM.

For `COc1cc(-c2cc3c(o2)c(=O)n(-c2cnnc(C)c2)c(=O)n3CCC#N)c(Cl)cc1F` [Example 27], the EC50 was 5250 nM.

As to `Cn1ncc2cncc(-n3c(=O)c4oc(-c5ccccc5Cl)cc4n(C)c3=O)c21` [Example 29], the concentration for a half-maximal effect (EC50) was 1170 nM.

`COc1cc(-c2cc3c(o2)c(=O)n(-c2cncc4cnn(C)c24)c(=O)n3C)c(Cl)cc1F` [Example 30]: the EC50 was found to be 683 nM.

Take `Cn1c(=O)n(-c2cncc3ccccc23)c(=O)c2oc(-c3ccccc3Cl)cc21` [Example 31]: the EC50 is 565 nM.

Take `COc1ccc2cncc(-n3c(=O)c4oc(-c5ccccc5Cl)cc4n(C)c3=O)c2c1` [Example 32]: the EC50 came out at 381 nM.

For `Cn1c(=O)n(-c2cncc3ccccc23)c(=O)c2cc(-c3ccccc3Cl)oc21` [Example 33], the concentration for a half-maximal effect (EC50) is 145 nM.

Take `Cn1c(=O)n(-c2cncc3c2CCCC3)c(=O)c2oc(-c3ccccc3Cl)cc21` [Example 34]: the EC50 was 960 nM.

As for `Cc1cncc(-n2c(=O)c3oc(-c4ccccc4Cl)cc3n(C)c2=O)c1` [Example 35], the EC50 stood at 726 nM.

As to `Cn1c(=O)n(-c2cncc3ccccc23)c(=O)c2oc(-c3ccc(F)cc3Cl)cc21` [Example 36], the EC50 is 3270 nM.

With `Cn1ncc2cncc(-n3c(=O)c4oc(-c5ccccc5Cl)cc4n(CC#N)c3=O)c21` [Example 38], the EC50 worked out at 88 nM.

`COc1cc(-c2cc3c(o2)c(=O)n(-c2cncc4cnn(C)c24)c(=O)n3CC#N)c(Cl)cc1F` [Example 39]: the EC50 was 50.7 nM.

As to `N#CCn1c(=O)n(-c2cncc3ccccc23)c(=O)c2oc(-c3ccccc3Cl)cc21` [Example 40], the EC50 is 20.1 nM.

As to `COc1ccc2cncc(-n3c(=O)c4oc(-c5ccccc5Cl)cc4n(CC#N)c3=O)c2c1` [Example 41], the EC50 was determined as 16.6 nM.

For the compound `N#CCn1c(=O)n(-c2cncc3c2CCCC3)c(=O)c2oc(-c3ccccc3Cl)cc21` [Example 42], the EC50 was 36.7 nM.

Regarding `N#CCn1c(=O)n(-c2cncc3ccc(F)cc23)c(=O)c2oc(-c3ccccc3Cl)cc21` [Example 43], the EC50 was 25.3 nM.

With `Cc1cncc(-n2c(=O)c3oc(-c4ccccc4Cl)cc3n(CC#N)c2=O)c1` [Example 45], the EC50 was 52.3 nM.

Regarding `N#CCn1c(=O)n(-c2cncc3ccccc23)c(=O)c2oc(-c3ccc(F)cc3Cl)cc21` [Example 46], the EC50 was found to be 58.4 nM.

Staying with this test, now noted: Severe acute respiratory syndrome coronavirus, 48 h; read-out: MPro EC50.
In the case of `O=c1[nH]c2cc(-c3ccccc3Cl)oc2c(=O)n1-c1cncc2ccccc12` [Example 4, 6-(2-chlorophenyl)-3-(4-isoquinolyl)-1H-furo[3,2-d]pyrimidine-2,4-dione], the EC50 turned out to be 273 nM.

As to `Cn1ncc2cncc(-n3c(=O)[nH]c4cc(-c5ccc(F)cc5Cl)oc4c3=O)c21` [Example 9], the EC50 stood at 1010 nM.

Consider `COc1cc(-c2cc3[nH]c(=O)n(-c4cncc5ccccc45)c(=O)c3o2)c(Cl)cc1F` [Example 11, 6-(2-chloro-4-fluoro-5-methoxy-phenyl)-3-(4-isoquinolyl)-1H-furo[3,2-d]pyrimidine-2,4-dione], for which the EC50 was determined as 81.5 nM.

As for `COc1cc(-c2cc3c(o2)c(=O)n(-c2cncc4ccccc24)c(=O)n3CCC#N)c(Cl)cc1F` [Example 16, 3-(6-(2-chloro-4-fluoro-5-methoxyphenyl)-3-(isoquinolin-4-yl)-2,4-dioxo-3,4-dihydrofuro[3,2-d]pyrimidin-1(2H1)-yl)propanenitrile], the EC50 stood at 4.36 nM.

For the compound `COc1cc(-c2cc3c(o2)c(=O)n(-c2cncc4ccccc24)c(=O)n3C)c(Cl)cc1F` [Example 28, 6-(2-chloro-4-fluoro-5-methoxy-phenyl)-3-(4-isoquinolyl)-1-methyl-furo[3,2-d]pyrimidine-2,4-dione], the EC50 was determined as 288 nM.

On to `COc1cc(-c2cc3c(o2)c(=O)n(-c2cncc4ccccc24)c(=O)n3CC#N)c(Cl)cc1F` [Example 37, 2-(6-(2-chloro-4-fluoro-5-methoxyphenyl)-3-(isoquinolin-4-yl)-2,4-dioxo-3,4-dihydrofuro[3,2-d]pyrimidin-1(2H)-yl)acetonitrile], for which the EC50 was determined as 15.8 nM.

Still in this test, the particulars now being: read-out: MPro EC50.
For `COc1cc(-c2cc3c(o2)c(=O)n(-c2cncc4ccccc24)c(=O)n3CCC#N)c(Cl)cc1F` (single isomer, unassigned) [Example 59, 3-[6-(2-chloro-4-fluoro-5-methoxy-phenyl)-3-(4-isoquinolyl)-2,4-dioxo-furo[3,2-d]pyrimidin-1-yl]propanenitrile], the EC50 stood at 4.65 nM.

`COc1cc(-c2cc3c(o2)c(=O)n(-c2cncc4ccccc24)c(=O)n3CCC#N)c(Cl)cc1F` (single isomer, unassigned) [Example 60, 3-[6-(2-chloro-4-fluoro-5-methoxy-phenyl)-3-(4-isoquinolyl)-2,4-dioxo-furo[3,2-d]pyrimidin-1-yl]propanenitrile]: the EC50 was determined as 82.8 nM.

On to `Cn1ncc2cncc(-n3c(=O)c4oc(-c5ccccc5Cl)cc4n(CCC#N)c3=O)c21` (single isomer, unassigned) [Example 61, 3-[6-(2-chlorophenyl)-3-(1-methylpyrazolo[4,3-c]pyridin-7-yl)-2,4-dioxo-furo[3,2-d]pyrimidin-1-yl]propanenitrile], for which the EC50 was found to be 7.16 nM.

On to `Cn1ncc2cncc(-n3c(=O)c4oc(-c5ccccc5Cl)cc4n(CCC#N)c3=O)c21` (single isomer, unassigned) [Example 62, 3-[6-(2-chlorophenyl)-3-(1-methylpyrazolo[4,3-c]pyridin-7-yl)-2,4-dioxo-furo[3,2-d]pyrimidin-1-yl]propanenitrile], for which the EC50 was found to be 233 nM.

As for `COc1cc(-c2cc3c(o2)c(=O)n(-c2cncc4cnn(C)c24)c(=O)n3CCC#N)c(Cl)cc1F` (single isomer, unassigned) [Example 63, 3-[6-(2-chloro-4-fluoro-5-methoxy-phenyl)-3-(1-methylpyrazolo[4,3-c]pyridin-7-yl)-2,4-dioxo-furo[3,2-d]pyrimidin-1-yl]propanenitrile], the EC50 is 6.24 nM.

`COc1cc(-c2cc3c(o2)c(=O)n(-c2cncc4cnn(C)c24)c(=O)n3CCC#N)c(Cl)cc1F` (single isomer, unassigned) [Example 64, 3-[6-(2-chloro-4-fluoro-5-methoxy-phenyl)-3-(1-methylpyrazolo[4,3-c]pyridin-7-yl)-2,4-dioxo-furo[3,2-d]pyrimidin-1-yl]propanenitrile]: the EC50 came to 112 nM.

As for `COc1cc(-c2cc3c(o2)c(=O)n(-c2cncc4cccnc24)c(=O)n3CCC#N)c(Cl)cc1F` (single isomer, unassigned) [Example 65, 3-(6-(2-chloro-4-fluoro-5-methoxyphenyl)-3-(1,6-naphthyridin-8-yl)-2,4-dioxo-3,4-dihydrofuro[3,2-d]pyrimidin-1(2H)-yl)propanenitrile], the EC50 worked out at 5.78 nM.

For the compound `COc1cc(-c2cc3c(o2)c(=O)n(-c2cncc4cccnc24)c(=O)n3CCC#N)c(Cl)cc1F` (single isomer, unassigned) [Example 66, 3-(6-(2-chloro-4-fluoro-5-methoxyphenyl)-3-(1,6-naphthyridin-8-yl)-2,4-dioxo-3,4-dihydrofuro[3,2-d]pyrimidin-1(2H)-yl)propanenitrile], the EC50 came to 112 nM.
